Assay results from a melting point compilation (Tetko et al.; mined from patent text by program, amines drawn as free bases though some values may be those of a salt).

SMILES	melting point [°C]
COc1ccccc1NC(=O)Nc1nc(Nc2ccccc2-c2ccccc2)nc(N(CC(=O)O)Cc2ccc(F)cc2)n1	120 to 125
CCSc1oc2ccccc2c(=S)c1C#N	175 to 179
N#CC1CN1Cc1ccc(C(=O)O)s1 (stereo not given)	108 to 111
Cc1cccc(-c2nc3ccc(Cl)nn3c2-c2ccnc(Nc3ccc(F)cc3C)c2)c1	191 to 192
Oc1ccc2cc(-c3cnc(Cc4ccc5ccccc5c4)o3)ccc2c1	188 to 191
NC(=O)c1cnn2cccc2c1Nc1ccccc1	247
O=C(c1cccc(O)c1)c1cccc(Cl)c1	104
COc1ccc(-c2nc(-c3cccnc3)c(C)n2C)c(OC)c1	129 to 131
C=CCCc1nc(N)n2nc(-c3ccco3)nc2n1	194 to 196
O=C(CS(=O)(=O)C(c1ccc(Cl)cc1)c1ccc(Cl)cc1)c1ccccn1	120 to 121
COc1cc(OCc2ccccn2)ccc1/C=C/c1cc(/C=C/c2ccc(OCc3ccccn3)cc2OC)[nH]n1	195 to 197
Cc1nc(N)ccc1-c1ccccc1	110 to 113
CCNC(=O)N(CC)C(=O)c1nc(Cl)c(Cl)[nH]1	146
ClCc1cc2ccccc2nc1I	138 to 140
N#CCc1ccc(-c2ccc(C(CC3CCOCC3)c3ccc(S(=O)(=O)C4CC4)cc3)[nH]2)nc1 (stereo not given)	139 to 141
Cc1ncccc1OCCO	75 to 80
O=C(COc1ccc2c(-c3ccccc3F)noc2c1Cl)NO	151
CCc1ccc(SCc2c(C(C)C)nc(C(C)C)c(CO)c2-c2ccc(F)cc2)cc1	102 to 103
Cc1cccc(-c2nc3cccnn3c2-c2ccnc(Nc3ccccc3C)c2)c1	208 to 209
NC(=O)c1ccc([N+](=O)[O-])cc1[N+](=O)[O-]	202 to 204
COC(=O)c1cc(C(=O)OC)n(-c2ccc([N+](=O)[O-])cc2C(=O)c2ccccc2)n1	150 to 152
N#Cc1cccc2c1CC(=NN)c1ccccc1S2	175 to 177

SMILES	melting point [°C]
C#Cc1cn(C)c2cc(-c3ccccc3Cl)c3c(c12)C(=O)NC3=O	125 to 129
O=P(O)(c1ccccc1)c1ccc(S(=O)(=O)c2ccccc2)cc1	220 to 224
CCc1noc(-c2cn(-c3cccc(Oc4ccc(N)cc4)c3)cn2)n1	131 to 133
CCCCc1c2c(nn1-c1ccccc1)c(Cl)nc1ccccc12	239 to 243
O=C(c1ccc(Cl)cc1)n1cc(CCN=c2sc3ccccc3s2)c2ccccc21	135
O=C1NC[C@H]2CCC[C@H]2O1 (relative stereo)	56 to 58
CCc1c(Oc2cnc(N)nc2N)cc(C)c2sccc12	181
c1ccc(-c2ccc3[nH]c4ccccc4c3c2)cc1	221
O=c1ccc2ccc(CBr)cc2o1	172 to 176
CCSc1cn(C)cc(-c2ccccc2)c1=O	94 to 95
COc1ccc(CCN(C)CCCCc2ccc(NC(=O)c3cccc4c(=O)c5cccc(OC)c5[nH]c34)cc2)cc1OC	170
COc1ccc(-n2c(-c3ccc(Br)cc3)nc3c4ccccc4c4ccccc4c32)cc1	239
Fc1cc2c(cc1F)C(Cl)Cc1ccccc1S2 (stereo not given)	68 to 71
CN(C)Cc1cccc(OCCCNc2nc(N=Cc3ccncc3)nn2C)c1	127 to 128
O=C1NC(=O)c2c1c(-c1ccccc1Cl)cc1[nH]c3ccc(CCO)cc3c21	253 to 257
CC(C)(CNC(=O)Cc1ccccc1)NCC(O)c1cc(Cl)c(N)c(Cl)c1 (stereo not given)	96 to 98
CCCCc1ncc(/C=C/CC(=O)O)n1Cc1ccccc1Cl	135 to 137
O=[N+]([O-])c1cccc2c1c([N+](=O)[O-])cc1nc(O)c(O)nc12	> 300
NC1=NN(c2cccc(Cl)c2)C(c2ccccc2)C1 (stereo not given)	164 to 165
CN1c2nnnn2-c2ccc(Cl)cc2C1c1ccccc1 (stereo not given)	280
NC(=O)NCc1ccc2c(c1)OCO2	183 to 184
C#CCn1cc(CO)cc1C(=O)OC	77

The next lines start with the values.

melting point [°C]	SMILES
93 to 94	CCCCCCCCCCCCC/C=C(\C(=O)Nc1ccc(C(=O)OC)cc1)c1ccc2c(c1)C(C)(C)CCC2(C)C
270 to 272	CC(=O)OC1(C(C)=O)C(C)CC2C3CC(C)C4=CC(=O)C=CC4(C)C3C(O)CC21C (stereo not given)
55 to 56	CC(C)(C)c1c(=O)o[n-][n+]1CCSC12CC3CC(CC(C3)C1)C2
283 to 285	CC(=O)c1ccc(NC(=O)c2ccc(-c3ccccc3)cc2)cc1
127 to 128	COC(=O)CCC(=O)c1cc(NC(C)=O)ccc1OCC(O)CNC(C)(C)C (stereo not given)
> 300	CC(=O)Nc1cccc2c1C(=O)c1c-2n[nH]c1-c1ccc(N2CCOCC2)cc1
148 to 149	O=C(C1CCCN1C(=O)CCCN1C(=O)c2ccccc2C1=O)N1CCCC1 (stereo not given)
163 to 164	CC(C)(C)C(=O)C(Br)Cc1cccnc1 (stereo not given)
145 to 146	COc1cc(OC)cc(-c2cc(=O)c3ccc(OCC(O)CNC(C)(C)C)cc3o2)c1 (stereo not given)
190 to 191	CCCCOc1ccccc1-c1ccc(C(N)=O)c(=O)[nH]1
410 to 420	O=c1ccn(-c2cc3[nH]c(=O)c(=O)[nH]c3cc2C(F)(F)F)cc1
103 to 105	Cc1ccc(C(=O)C2Cc3ccccc3C2=O)cc1 (stereo not given)
> 250	CC(=O)NC[C@H]1CN(c2ccc(N3CCN(C(=O)CCC(=O)c4ccc(C(N)=O)cc4)CC3)c(F)c2)C(=O)O1
175 to 180	CC1(O)c2ccccc2-c2c1c(-n1ccnc1)nc1ccc(Br)cc21 (stereo not given)
230 to 231	CC(Oc1ncn(-c2cc(Cl)cc(Cl)c2)n1)C(=O)O (stereo not given)
74 to 76	CC(Br)C(=O)N1C(=O)c2ccccc2OC12CCCCC2 (stereo not given)
254 to 256	N#Cc1ccc(-c2cc(C(=O)O)c(=O)n(Cc3ccccc3)n2)cc1
80 to 115	CCn1c(C)c(C2(N(c3ccccc3)c3ccccc3C(=O)OC)OC(=O)c3ccccc32)c2ccccc21 (stereo not given)
111 to 112	C[C@]1(CN2CCC(Cc3ccc(OC(F)(F)F)cc3)CC2)Cn2cc([N+](=O)[O-])nc2O1

melting point [°C]	SMILES
102 to 103	COCCOc1ncccc1S(N)(=O)=O
128 to 130	Cc1ccccc1CNC(=O)c1ccc2n1Cc1ccccc1N(C(=O)c1ccc(-c3ccccc3C)c(C)c1)C2
209	CC(=O)N[C@H]1C[C@@H](c2cc(NC(=O)Cc3cccc4ccccc34)n[nH]2)C1
108 to 113	COC(=O)CCC(C)C1CCC2C3CC=C4CC(OC(C)=O)CC(OC(C)=O)C4(C)C3CCC12C (stereo not given)
229	Nc1cc(F)ccc1C(=O)NCCN1CCC(n2c(=O)[nH]c3ccccc32)CC1
> 300	CC1(C)CC(=O)C2=C(C1)NC1=C(C(=O)CC(C)(C)C1)C2c1c(F)cc(F)cc1F
91 to 94	Cc1cccc(CC(Nc2ccc3c(c2)C(=O)OC3)C(=O)NC(C#N)CCCCc2cccc(C(=O)O)c2)c1 (stereo not given)
152 to 154	COCC1(O)CCN(c2ccc(N3C[C@H](CNC(C)=O)OC3=O)cc2)CC1
134 to 136	COC(=O)C=Cc1ccc2c(ccn2S(=O)(=O)c2ccccc2)c1
87.2 to 88	COC(=O)[C@@H]1COC(=S)N1C(=O)c1ccccc1
134 to 136	CCOC(=O)C1(C)OC2(O)C3CCCN3C(=O)C(Cc3ccccc3)N2C1=O (stereo not given)
65.5 to 69	Cc1csc(=Nc2ccccc2C)s1
213 to 215	CCCCc1ncc(/C=C(\Cc2cccs2)C(=O)O)n1Cc1cccc(OC)c1[N+](=O)[O-]
62 to 63	COC(=O)CCCC#CCN1C(=O)c2ccccc2C1=O
108 to 109	CS(=O)(=O)c1cc(OCc2ccccc2)cs1
140 to 143	Cc1cccc(C)c1N1C(=S)N(C)C(O)C1O (stereo not given)
122 to 123	N=C(N)c1ccc2cc(OC(=O)CCCCCN)ccc2c1
89 to 90	O=C1CCCN1C(=O)Oc1ccc(F)cc1
82 to 83	C[C@@H]1N[C@H](c2ccccc2)COC1=O

melting point [°C]	SMILES
59 to 60	Cc1csc(C2(c3cccs3)CCCO2)n1 (stereo not given)
196 to 198	CCOC(=O)C1=Cc2cc(Cl)cc(-c3ccccc3)c2OC1C(F)(F)F (stereo not given)
90 to 92	Cc1cc(C2(C(F)(F)F)CC(c3ccc(Cl)cc3)=NN2C)ccc1NC(=O)c1cccc(I)c1C(=O)NC(C)C (stereo not given)
133	COc1ccc2c(c1)C(c1ccccc1)NC(=O)N2CC1CC1 (stereo not given)
109 to 110	CC(=O)Nc1ccc(C(C)(C)C)cc1[N+](=O)[O-]
245 to 247	COc1ccc(NC(=O)N(C)Cc2cccc3c2CN(C2CCC(=O)NC2=O)C3=O)cc1 (stereo not given)
152	NC(=Nc1ccc(CNC(=O)CCCCC2CCSS2)cc1)c1cccs1 (stereo not given)
112	CN1C(C(=O)OC2CCCCC2)=C(O)c2ccccc2S1(=O)=O
176	O=C(O)C1c2ccccc2COc2ccc(F)cc21 (stereo not given)
106 to 109	COc1ccc2c(c1)C(O)(CCNC(C)=O)CCC2 (stereo not given)
220 to 228	CN(CC(=O)O)[C@H]1CC[C@H](Nc2ncc3ncnc(Nc4ccc(F)c(Cl)c4)c3n2)CC1
312	N#Cc1c(N2CCN(C(=O)c3ccco3)CC2)c2cc(F)cnc2[nH]c1=O
137	OCc1ccc(Cn2c(NC3CCN(CC(O)COc4ccc(F)cc4)CC3)nc3ccccc32)o1 (stereo not given)
207 to 208	COC(=O)c1ccc(NC(=O)c2cc(C(C)C)c(C(C)C)s2)cn1
290 to 292	Cn1cc(C(=O)O)c(=O)c2sc(-c3ccccc3)cc21
128 to 130	CCCNC(=O)C(O)C1c2ccccc2C(=O)N1c1ccc2ccc(C)nc2n1 (stereo not given)
180	O=[N+]([O-])c1ccc(Oc2c(Cl)cc(S(=O)(=O)NC(=NO)Nc3ccc(Cl)cc3)cc2Cl)c(Cl)c1
163	Cc1ccc(S(=O)(=O)OCCn2c(=NC(=O)C(F)(F)F)sc3cc(C(F)(F)F)ccc32)cc1
